The compounds below were run against T1, human TLR7 (hTLR7) (Homo sapiens, UniProt Q9NYK1) (assay: Antagonist screen, hTLR7-NFκB-293 cells, NF-κB-luciferase reporter, with EC50 of R848). Conditions: compound at 0.5, 5, 50 μg/ml; EC50 concentration of R848; 16 h; NF-κB-luciferase.
T1 construct: expressed in transfected cells
T1 sequence (Q9NYK1 27-1049): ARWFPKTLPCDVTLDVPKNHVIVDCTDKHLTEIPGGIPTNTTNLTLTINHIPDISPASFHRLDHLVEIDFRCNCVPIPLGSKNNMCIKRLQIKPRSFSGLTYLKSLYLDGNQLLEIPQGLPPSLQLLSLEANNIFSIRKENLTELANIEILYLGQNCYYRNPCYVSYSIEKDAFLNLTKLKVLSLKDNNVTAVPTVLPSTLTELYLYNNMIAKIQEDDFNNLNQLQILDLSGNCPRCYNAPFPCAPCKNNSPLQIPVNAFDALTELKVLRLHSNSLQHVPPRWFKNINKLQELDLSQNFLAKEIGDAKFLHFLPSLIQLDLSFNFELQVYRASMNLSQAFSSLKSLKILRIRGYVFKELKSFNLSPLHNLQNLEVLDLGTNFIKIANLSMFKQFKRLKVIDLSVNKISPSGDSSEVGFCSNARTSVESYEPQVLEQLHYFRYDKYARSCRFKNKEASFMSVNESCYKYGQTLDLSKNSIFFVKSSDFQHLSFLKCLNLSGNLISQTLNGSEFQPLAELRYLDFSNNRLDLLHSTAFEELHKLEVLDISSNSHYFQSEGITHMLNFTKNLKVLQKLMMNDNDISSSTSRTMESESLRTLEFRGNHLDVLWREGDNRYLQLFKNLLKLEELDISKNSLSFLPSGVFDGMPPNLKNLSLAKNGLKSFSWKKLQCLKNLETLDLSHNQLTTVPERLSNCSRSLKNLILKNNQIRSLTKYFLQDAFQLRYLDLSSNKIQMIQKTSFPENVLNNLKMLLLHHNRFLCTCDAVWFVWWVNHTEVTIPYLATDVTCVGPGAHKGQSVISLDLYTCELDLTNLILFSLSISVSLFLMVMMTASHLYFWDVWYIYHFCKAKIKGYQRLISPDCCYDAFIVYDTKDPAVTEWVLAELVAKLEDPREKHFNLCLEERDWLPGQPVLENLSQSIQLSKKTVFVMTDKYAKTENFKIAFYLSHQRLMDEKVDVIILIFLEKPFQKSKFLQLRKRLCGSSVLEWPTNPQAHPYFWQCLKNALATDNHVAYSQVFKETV
Format: cell-based
Protocol: The method is described in greater detail as follows. The cells for each individual cell clone (hTLR3-NFκB-293, hTLR7-NFκB-293, hTLR8-NFκB-293 and hTLR9-NFκB-293) were counted and seeded one day before the stimulation at 1.5×10^4 cells per well in 96-well cell culture plates. To become adherent the cells were incubated after seeding overnight at 37° C. in 5% CO2 humidified air.
The screen for each compound was performed at the same time for all of the receptors TLR3, TLR7, TLR8 and TLR9. Up to fifteen test compounds, each assayed in duplicate at each of three different final concentrations (0.5 μg/ml, 5 μg/ml, and 50 μg/ml), were used for 16 h cell stimulation on a single multiwell culture plate. A 4× final concentration master plate was created to prepare the different test compounds before they were added to the cells.
Controls were added as duplicates individually for each cell clone on the cell culture plate. Positive controls were used as follows (final concentrations): 50 μg/ml poly(I:C) for hTLR3-NFκB-293; 8 μM resiquimod (R848) for hTLR7-NFκB-293; 30 μM R848 for hTLR8-NFκB-293; and 2.5 μM CpG-ODN 2006 for hTLR9-NFκB-293. Media alone was used as negative control. After addition of controls and small molecules, the cell clones were additionally stimulated with the EC50 concentration of the appropriate receptor-specific ligand.
The mean value of wells H2 and H5 (each with cells and EC50 concentration of the appropriate receptor-specific ligand) divided by the mean of wells H3 and H6 (each with cells alone) yielded the baseline response (i.e., fold induction of luciferase activity) to EC50 concentration of the appropriate receptor-specific ligand.
After 16 h stimulation the supernatant was removed and the cells treated with lysis buffer and stored at −80° C. before measuring.
For each screen result a graphical documentation was performed.
The baseline result (measured with addition of the EC50 concentration of the receptor-specific ligand) for each cell culture plate was measured as described above. Antagonistic effects were measured by down regulation compared to the baseline. Antagonists were scored as follows: • 13: compounds for which there was clear down regulation at 0.5 μg/ml, 5 μg/ml, and 50 μg/ml; • 12: compounds for which there was clear down regulation at 5 μg/ml and 50 μg/ml; • 11: compounds for which there was clear down regulation only at 50 μg/ml; • —: compounds for which there was no clear down regulation even at 50 μg/ml. Agonists
Results were expressed as fold induction over baseline luciferase activity measured in the absence of R848. […] Additional screening was performed in like manner using additional small molecules selected from another library or specifically prepared for this purpose. Scoring is reported as above but as applied to TLR7.

| Compound | hTLR7 (inhibitory effect, antagonist score) |
| --- | --- |
| CCOC(=O)c1cc([N+](=O)[O-])cc2c1-c1ccc([N+](=O)[O-])cc1C2=C(C#N)C#N [compound 1039] | 11 (compounds for which there was clear down regulation only at 50 μg/ml) |
| CC(=O)Oc1cc(C)c(C2(c3cc(C(C)C)c(OC(C)=O)cc3C)OC(=O)c3ccccc32)cc1C(C)C [compound 1161] | 12 (compounds for which there was clear down regulation at 5 μg/ml and 50 μg/ml) |
| Cc1cccc(CN2CCN(C(c3ccccc3)c3ccc(Cl)cc3)CC2)c1.Cl.Cl (centres unmarked) [compound 457, Meclozinedihydrochioride] | — (compounds for which there was no clear down regulation even at 50 μg/ml) |
| Cc1cccc(C2(c3cccc(C)c3)OC(=O)c3ccccc32)c1 [compound 1308] | 12 (compounds for which there was clear down regulation at 5 μg/ml and 50 μg/ml) |
| Cl.Cl.OCCN1CCN(CC/C=C2/c3ccccc3Sc3ccc(C(F)(F)F)cc32)CC1 [compound 340, Flupentixoldihydrochloride cis-(Z)] | 11 (compounds for which there was clear down regulation only at 50 μg/ml) |
| CC1NCCc2c1[nH]c1ccccc21.Cl (racemic) [compound 619, Eleagnine hydrochloride (R,S)] | — (compounds for which there was no clear down regulation even at 50 μg/ml) |
| O=C1c2c(O)cccc2Cc2cccc(O)c21 [compound 43, Anthralin] | — (compounds for which there was no clear down regulation even at 50 μg/ml) |
| Cl.Cl.c1ccc2c3c([nH]c2c1)C1C2CCC(C4CCCNC42)N1CC3 (centres unmarked) [compound 685, Nitrarine dihydorchloride] | — (compounds for which there was no clear down regulation even at 50 μg/ml) |
| Maprotilinehydrochloride [compound 346] | 11 (compounds for which there was clear down regulation only at 50 μg/ml) |
| CN(CCO)C(=O)c1cccc2c1-c1ccccc1C2=O [compound 890] | 11 (compounds for which there was clear down regulation only at 50 μg/ml) |
| CN1CCCCC1CCN1c2ccccc2Sc2ccc([S+](C)[O-])cc21.O=S(=O)(O)c1ccccc1 (centres unmarked) [compound 529, Mesoridazine besylate] | — (compounds for which there was no clear down regulation even at 50 μg/ml) |
| CC[C@]12CCCN3CCc4c(n(c5ccccc45)[C@](O)(C(=O)OC)C1)[C@@H]32 [compound 636, Epivincamine] | — (compounds for which there was no clear down regulation even at 50 μg/ml) |
| NC(=O)c1cc(N)c2c(c1N)C(=O)c1ccccc1C2=O [compound 1158] | — (compounds for which there was no clear down regulation even at 50 μg/ml) |
| CN1CCC(=C2c3ccccc3Sc3ccccc32)CC1.O=C(O)/C=C\C(=O)O [compound 294, Pimethixene maleate] | 11 (compounds for which there was clear down regulation only at 50 μg/ml) |
| OCCN1CCN(CCCN2c3ccccc3Sc3ccc(Cl)cc32)CC1 [compound 125, Perphenazine] | — (compounds for which there was no clear down regulation even at 50 μg/ml) |
| CN1CCN(CCCN2c3ccccc3Sc3ccc(S(=O)(=O)N(C)C)cc32)CC1.CS(=O)(=O)O.CS(=O)(=O)O [compound 149, Thioproperasinedimesylate] | — (compounds for which there was no clear down regulation even at 50 μg/ml) |
| CC(NCCC(c1ccccc1)c1ccccc1)c1ccccc1.Cl (centres unmarked) [compound 270, Fendiline hydrochloride] | 11 (compounds for which there was clear down regulation only at 50 μg/ml) |
